ChEMBL document CHEMBL1201862, “PubChem BioAssay data set” (2004)
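Compound exposure: 48 hours, 5 concentrations, 96-well plates. The concentration for 50% growth inhibition is given as GI50.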 The source made the active and inactive calls. Cut-off read from the data, not from the text of the source: active = GI50 up to about 1.1 µM and inactive = higher. Where a SMILES comes first, the peptide text is derived from it. [ ]: non-standard residue; d: D form. The star is where a group is joined. Phe(4-NO2) = N[CH](Cc1ccc([N+](=O)[O-])cc1)C(=O)O; Boc = CC(C)(C)OC(=O)*; OtBu = CC(C)(C)O*

What was measured:
Experiment in all cases: growth of human tumour cells (NCI), 48 h
[1] = tested on: SK-MEL-2
[2] = tested on: SK-MEL-28
[3] = tested on: SK-OV-3
[4] = tested on: NCI-H226
[5] = tested on: SNB-75
[6] = tested on: UACC-257
[7] = tested on: TK-10
[8] = tested on: NCI/ADR-RES
[9] = tested on: T47D
[10] = tested on: NCI-H460
[11] = tested on: SW-620
[12] = tested on: BT-549
[13] = tested on: OVCAR-3
[14] = tested on: A498
[15] = tested on: HCT-116
[16] = tested on: SK-MEL-5
[17] = tested on: EKVX
[18] = tested on: DU-145
[19] = tested on: DMS-114
[20] = tested on: DMS-273

Measured: GI50

Clc1ccc(C2=CC(c3ccccc3)N3C(=N[C@H]4CCCC[C@@H]43)N2)cc1 (some centres not stated)
inactive: [1] 13.6 µM | [2] 2.79 µM | [3] 14.3 µM | [4] 8.85 µM | [5] 3.48 µM | [6] 12.9 µM | [7] 7.5 µM | [8] 4.35 µM | [9] 6.4 µM | [10] 2.88 µM | [11] 3.74 µM | [12] 9.12 µM | [13] 6.4 µM | [14] 10.4 µM | [15] 3.03 µM | [16] 1.71 µM | [17] 4.47 µM | [18] 8.41 µM

COc1ccc(/C=N/N=C(\N)NO)c(O)c1
active: [5] 0.0678 µM
inactive: [1] > 10 µM | [2] > 10 µM | [3] 7.38 µM | [4] 3.98 µM | [6] 6.52 µM | [7] > 10 µM | [8] 3.92 µM | [9] > 10 µM | [10] 4.91 µM | [11] > 10 µM | [12] > 10 µM | [13] 5.51 µM | [14] 8.77 µM | [15] 3.53 µM | [16] 3.53 µM | [17] > 10 µM | [18] > 10 µM

Cc1cn(S(=O)(=O)c2ccccc2)c2c(OCc3ccccc3)cc(NS(C)(=O)=O)cc12
inactive: [1] 18.1 µM | [2] 52.8 µM | [3] 40.9 µM | [4] 16.1 µM | [5] 22.9 µM | [6] 10.1 µM | [7] > 85.9 µM | [8] 14.9 µM | [9] 4.72 µM | [10] 18.5 µM | [11] 17.8 µM | [12] 27.6 µM | [13] 10.6 µM | [14] 8.15 µM | [15] 9.12 µM | [16] 4.35 µM | [17] 5.35 µM | [18] 31.3 µM

CSc1ccc(C2OC(=O)c3ccccc32)c2ccccc12 (configuration not stated)
inactive: [1] > 100 µM | [2] > 100 µM | [3] > 100 µM | [5] 14.2 µM | [6] > 100 µM | [19] 74.3 µM | [10] > 100 µM | [11] > 100 µM | [15] 87.5 µM | [16] 58.2 µM | [17] > 100 µM

CC(C)/C(Cl)=N/OC(=O)Nc1ccc(Br)cc1
inactive: [1] 16.8 µM | [2] 3.76 µM | [3] 16.7 µM | [4] 16.7 µM | [5] 18.6 µM | [6] 15.2 µM | [7] 13.2 µM | [8] 13.4 µM | [9] 2.67 µM | [10] 15 µM | [11] 2.2 µM | [12] 4.29 µM | [13] 4.89 µM | [14] 18.4 µM | [15] 2.9 µM | [16] 12.9 µM | [17] 1.97 µM | [18] 13.7 µM

CNC(=S)NNC(=O)c1c(C)nc2sccn12
inactive: [20] > 100 µM | [1] > 100 µM | [2] > 100 µM | [3] > 100 µM | [4] > 100 µM | [6] > 100 µM | [7] > 100 µM | [10] > 100 µM | [11] > 100 µM | [13] > 100 µM | [15] > 100 µM | [16] > 100 µM | [17] > 100 µM

CN1Cc2ccccc2/C=C\c2ccccc21
inactive: [1] 25.4 µM | [2] > 100 µM | [3] 87.3 µM | [4] > 100 µM | [5] 65.6 µM | [6] > 100 µM | [7] 70.5 µM | [8] > 100 µM | [9] 50.5 µM | [10] 42.7 µM | [11] > 100 µM | [12] 70 µM | [13] 47.3 µM | [14] 69.5 µM | [15] 78.2 µM | [16] 40.2 µM | [17] 30.8 µM | [18] > 100 µM

COC(=O)C(Cc1ccc([N+](=O)[O-])cc1)NC(=O)C(CC(=O)OC(C)(C)C)NC(=O)OC(C)(C)C (configuration not stated) (Boc-Asp(OtBu)-[Phe(4-NO2)]-OMe; configuration not given here)
inactive: [1] > 100 µM | [2] 25.5 µM | [3] > 100 µM | [4] > 100 µM | [5] 55.5 µM | [6] > 100 µM | [7] > 100 µM | [8] > 100 µM | [9] > 100 µM | [10] > 100 µM | [11] > 100 µM | [12] > 100 µM | [13] > 100 µM | [14] > 100 µM | [15] > 100 µM | [16] > 100 µM | [17] > 100 µM | [18] > 100 µM
